Test in all cases: NCI anticancer screen, dose series, 48 h
The subject of test [1] is ACHN renal.
For test [2], the system named is HL-60(TB) leukemia.
In test [3] the test system is IGROV1 ovarian.
For test [4], the system named is K-562 leukemia.
Test [5] deals with OVCAR-8 ovarian.
In test [6] the test system is PC-3 prostate.
Test [7] deals with RPMI-8226 leukemia.
The test system of test [8] is RXF 393 renal.
In test [9] the test system is SK-MEL-5 melanoma.
Test [10] deals with 786-0 renal.
In test [11] the test system is A498 renal.

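Cells were grown in 96-well plates and exposed to each compound for 48 hours at five concentrations; endpoints were interpolated linearly between bracketing concentrations, or set to the highest concentration if not reached. TGI: total growth inhibition.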

On to `NC(CCCCCP(=O)(O)O)C(=O)O` (configuration not stated), for which the TGI in [1], in [2], in [3], in test [4], in test [5] and in test [6] was over 100 µM throughout. Moreover, the TGI in test [7], in test [8] and in test [9] was over 100 µM throughout.
As to `NS(=O)(=O)c1nnc(NC(=O)CCC(=O)O)s1`, the TGI in test [10], in test [11], in test [1], in test [2], in test [4] and in test [5] was over 100 µM throughout. Further, the TGI in test [7], in test [8] and in test [9] was over 100 µM in each case.
As to `CC(C)OP(=O)(OC(C)C)C(C(F)(F)F)C(F)(F)F`, the TGI in test [10], in test [1], in [2], in test [3], in test [4] and in [5] was over 100 µM in each case. The TGI in test [6], in [7], in test [8] and in test [9] was over 100 µM throughout.
Consider `CC(=O)OCC1C(C(C)OC(C)=O)CCC2C1CCC1(C)C(OC(C)=O)CCC21` (configuration not stated), for which the TGI in test [10] was found to be 49.5 µM; in test [11] it was 41.4 µM; in test [1], 28.3 µM; in test [2], 52.6 µM; in test [3], 42.1 µM; in [4] it was 36.8 µM. Moreover, the figures for the TGI in test [5], in test [7] and in test [9] were 46.2 µM, 69.9 µM and 30.6 µM, respectively.
In the case of `O=C(ON=c1c2ccccc2ccc2ccccc12)c1cc([N+](=O)[O-])cc([N+](=O)[O-])c1`, the TGI in test [10], in test [1], in [2], in test [3], in test [4] and in test [5] was over 100 µM each time. Besides, the TGI in test [6], in [7], in [8] and in [9] was over 100 µM throughout.
Take `C=CCn1c2ccccc2c2c(C)c3cnccc3c(C)c21`: the TGI in [11] turned out to be 49.8 µM; in [2], 11.9 µM; in [3], 95.3 µM; in test [4] it was 52.2 µM; in [5] it was 40.4 µM; in test [7], 29.5 µM. Also, the values for the TGI in test [8] and in test [9] were 24.5 µM and 56.9 µM, respectively.
On to `c1ccc(Cc2cccc3cc(-c4ccc(-c5ccccc5)cc4)[nH]c23)cc1`, for which the TGI in test [10], in test [1], in test [2], in test [3], in test [5] and in test [6] was over 100 µM throughout. The TGI in test [7] and in test [9] was over 100 µM each time.
On to `Cc1nn2c(N)cc(=O)nc2nc1/C=C/c1ccc(N(C)C)cc1`, for which the TGI in test [10] is over 100 µM; in test [1] it was over 100 µM; in test [2] it was 0.0117 µM; in test [3] it was over 100 µM; in [4], over 100 µM; in test [5], over 100 µM. Also, the TGI in test [6], in test [7], in [8] and in [9] was over 100 µM each time.
On to `CC(/C=C/c1ncccc1OCCCCCC(=O)O)=N\NC1=NCCN1`, for which the TGI in test [1], in test [2], in test [3], in test [4], in test [5] and in test [7] was over 100 µM throughout. In test [8], this molecule yielded a TGI of over 100 µM.
For the molecule `Clc1cc2nc(C3CCCO3)[nH]c2cc1Cl` (configuration not stated), the TGI in [10], in test [1], in test [2], in test [3], in test [4] and in test [5] was over 100 µM each time. In addition, the TGI in test [6], in [7], in test [8] and in test [9] was over 100 µM throughout.
`CS(C)(=O)=N/C=C\C(=O)C(Cl)(Cl)Cl`: the TGI in [10], in test [1], in [2], in test [3], in test [4] and in test [5] was over 100 µM in each case. Also, the TGI in test [6], in test [7], in test [8] and in test [9] was over 100 µM throughout.
As to `CN(C)C(=S)Nc1nnc(NC23CC4CC(CC(C4)C2)C3)s1`, the TGI in test [10] is 38.2 µM; in test [11], 37.3 µM; in test [1], 64 µM; in test [2], 31.9 µM; in [3], 72.8 µM; in test [4], over 100 µM. Moreover, the TGI in test [5] is over 100 µM; in test [7], 51.1 µM; in test [8] it was 34.1 µM.
Consider `NC(=O)c1cnc2sc3ccccc3n2c1=O`, for which the TGI in [10], in test [1], in [2], in [3], in test [4] and in test [5] was over 100 µM in each case. Further, the TGI in test [6], in [7], in test [8] and in [9] was over 100 µM throughout.
As to `NNC(N)=Nc1cccc2ccccc12`, the TGI in [10], in test [11], in test [1], in test [2], in [3] and in [4] was over 100 µM throughout. Moreover, the TGI in test [5], in [7], in [8] and in [9] was over 100 µM throughout.
`O=C(O)CC(NC(=O)C(F)(F)F)C(=O)NC1Cc2ccccc2OC1=O` (configuration not stated): the TGI in [10], in test [1], in [3], in test [4], in test [5] and in [6] was over 100 µM in each case. The TGI in [7], in test [8] and in test [9] was over 100 µM throughout.
Regarding `COCCO`, the TGI in [11], in test [2], in test [3], in test [4], in test [5] and in test [7] was over 100 µM each time. The TGI in test [8] and in [9] was over 100 µM each time.
As for `O=C1C(NS(=O)(=O)c2ccccc2)=C(n2cnc3ccccc32)C(=O)c2ccccc21`, the TGI in test [10], in test [1], in test [2], in [3], in [4] and in test [5] was over 100 µM each time. The TGI is over 100 µM in [6], over 100 µM in [7], 98.2 µM in test [8] and over 100 µM in [9].
In the case of `C#CCNC(=O)CCC(N)C(=O)O` (configuration not stated), the TGI in [11], in test [2], in [3], in test [4], in test [5] and in test [7] was over 100 µM throughout. The TGI in test [8] and in [9] was over 100 µM in each case.
With `COc1cc(/C=C2\C(=O)N(c3cccc(Cl)c3)C(c3ccccc3)S2(=O)=O)cc(OC)c1OC` (configuration not stated), the TGI in [10], in test [11], in test [1], in test [2], in test [4] and in [5] was over 100 µM throughout. Further, the TGI in test [7] is 80.1 µM; in test [8] it was over 100 µM; in [9], over 100 µM.
On to `COC1/C=C\C=C(/C)C(=O)NC2=CC(=O)C=C(C2=O)C(OC)C(C)CC(OC)C(OC)C(C)/C=C(/C)C1OC(N)=O` (configuration not stated), for which the TGI is 28.4 µM in [11]; 0.554 µM in test [2]; 26 µM in test [3]; 1.44 µM in [4]; 5.62 µM in test [5]; 12.1 µM in [7]. The molecule also came in with a TGI in test [9] of 20.9 µM.
On to `Cc1ccc2nc3c(C(=O)NCCN(C)C)cccc3cc2c1`, for which the TGI is 3.4 µM in test [11]; 3.72 µM in test [2]; 6.5 µM in test [3]; 7.83 µM in [4]; 4.87 µM in test [5]; 7.12 µM in test [7]. For the same molecule, the TGI was determined as 7.02 µM in [8] and 3.41 µM in test [9].
As for `Nc1[nH]c(=O)nc2sc3c(c12)CCCC3`, the TGI in test [10], in test [1], in test [2], in test [3], in [4] and in test [5] was over 100 µM in each case. For the same molecule, the TGI in test [6], in [7], in [8] and in test [9] was over 100 µM each time.
Take `NCCCNCCSSCc1ccccc1CSSCCNCCCN`: the TGI is over 100 µM in [11]; over 100 µM in test [1]; 29.8 µM in test [2]; over 100 µM in test [3]; over 100 µM in test [4]; over 100 µM in test [5]. The TGI in test [7], in test [8] and in test [9] was over 100 µM each time.

Values taken from PubChem BioAssay (NCI).
